Data taken from patent US8618158B2, “Therapeutic agents” (Cancer Research Technology Limited, priority 2008, dated 2013).
Like-named read-outs stand apart in the source and are kept apart here.

Assays:
SJSA-1 cell line [1] = experiment: Western blot of MDM2, p53 and p21 levels in SJSA-1 cells; type: cell-based; conditions: for levels of p53, p21 and MDM2 protein (FIG. 1): MDM2 amplified SJSA-1 cells, 1-20 μM
Description: The medium was then aspirated and the dishes were washed with 3 mL of cold PBS.
The samples were then loaded onto a precast 4-20% gradient polyacrylamide Tris-Glycine gels (15 wells, 1.5 mm thickness, Invitrogen Life Technologies), along with a pre-stained marker protein (SeeBlue, Invitrogen). The Gels were processed in Novex XCell (Invitrogen) at 180V and blotted onto a High Bond C membrane (Amersham Life Science) overnight at 30V.
The membrane was then blocked for one hour at room temperature in TBS-Tween containing 5% non-fat milk (TBST-M) followed by incubation with primary antibodies for MDM2 (MDM2-Ab 1, 1:500, Oncogene), p53 (p53-D07, 1:1000, Novacastra), p21 (p21 Ab1, 1:100, Oncogene) and Actin (Actin AC40, 1:1000, Sigma) in PBST-M for 1 hour.
The membrane was then washed three times in TBST (15 minutes per wash) and then incubated for an additional 1 hour with a anti mouse or a rabbit horseradish peroxidase (HRP) secondary antibody (Dako, 1:1000) in PBST-M followed by a final wash consisting of six washes with TBST at 5 minutes per wash.

[2] = test system: wild-type p53 HCT116 cells; experiment: Growth inhibition in p53 wild-type HCT116 cells; type: cell-based
p53−/− HCT116 cells = experiment: Growth inhibition in p53−/− HCT116 cells; type: cell-based; conditions: comparison of p53 wt and p53−/− HCT116
[3] = test system: p53-dependent transcriptional activity; experiment: Luciferase based p53-dependent reporter gene assay; type: cell-based
MDM2-p53 interaction = MDM2-p53 interaction (Homo sapiens (Human), UniProt Q00987); experiment: MDM2-p53 ELISA binding assay
Description: Streptavidin-coated 96-well plates are used to immobilise a biotin-tagged IP3 p53-derived peptide ([…]). This is a peptide analogue derived from the p53 binding site for MDM2 ([…]). […] Aliquots of MDM2 generated by in vitro translation are pre-incubated for 20 minutes at room temperature (i.e. 20-25° C.) with test compounds and controls, before transfer into the IP3-coated 96-well plates.
3-(4-Chloro-phenyl)-3-(4-hydroxy-3,5-dimethoxy-benzyloxy)-2-propyl-2,3-dihydro-isoindolin-1-one (NU8231) is currently included as a standard “lead compound” positive control. […] The AP peptide is included as a positive control for biological evaluation of the isoindolinones in the cell free binding assays.
All compounds are dissolved in DMSO and tested at a range of concentrations in the presence of a fixed final concentration of 5% DMSO.

SJSA-1 cell line [4] = experiment: Western blot of PARP and caspase-3 cleavage in SJSA-1 cells; type: cell-based; conditions: SJSA-1, after 48 hours of treatment, in comparison to nutlin-3
[5] = Table 1, mean ± SE of n = 3 unless indicated, read-out: ELISA IC50
[6] = Table 5, read-out: MDM2-p53 ELISA IC50
[7] = Table 2, mean ± SE of n = 3 unless indicated, read-out: ELISA IC50

Chain of MDM2-p53 interaction (Q00987 whole entry): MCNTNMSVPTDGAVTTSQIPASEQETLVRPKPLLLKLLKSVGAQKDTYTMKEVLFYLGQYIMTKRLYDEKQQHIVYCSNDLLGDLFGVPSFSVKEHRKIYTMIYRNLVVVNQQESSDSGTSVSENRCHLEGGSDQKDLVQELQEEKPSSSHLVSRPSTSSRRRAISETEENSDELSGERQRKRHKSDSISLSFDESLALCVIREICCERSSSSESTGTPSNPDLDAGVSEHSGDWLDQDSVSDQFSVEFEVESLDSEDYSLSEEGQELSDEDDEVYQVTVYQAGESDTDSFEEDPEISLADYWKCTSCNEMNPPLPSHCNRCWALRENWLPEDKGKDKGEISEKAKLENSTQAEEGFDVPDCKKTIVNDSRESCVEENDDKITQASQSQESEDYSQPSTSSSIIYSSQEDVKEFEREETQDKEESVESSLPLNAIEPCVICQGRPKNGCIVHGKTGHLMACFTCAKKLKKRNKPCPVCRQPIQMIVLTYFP

**Q.** How did the “MDM2, p53 and p21 levels by Western blotting (FIG. 12)” value (SJSA-1 cell line [1]; SJSA-1 cells, 1 to 20 μM) turn out when `COc1ccc(C2=NC(c3ccc(Cl)cc3)C(c3ccc(Cl)cc3)N2C(=O)N2CCNC(=O)C2)c(OC(C)C)c1` (racemic) [Nutlin-3, (±)-4-[4,5-bis-(4-Chlorophenyl)-2-(2-isopropoxy-4-methoxyphenyl)-4,5-dihydroimidazole-1-carbonyl]-piperazin-2-one] was run?
**A.** Its value is “strong dose dependent increase in MDM2, p53 and p21 levels”.

**Q.** And the “growth inhibition (FIGS. 5 and 6)” value [2]?
**A.** Its value is “growth inhibitory”.

**Q.** And the “growth inhibition p53 wt versus p53−/− HCT116 (FIGS. 5 and 6)” value (p53−/− HCT116 cells)?
**A.** Its value is “greater growth inhibition in the p53 wt HCT116 cell line than the p53−/− HCT116 cells”.

**Q.** What does the source list for `O=C1c2ccccc2C(OC2C=C[C@@H](O)C2)(c2ccc(Cl)cc2)N1Cc1ccc(Cl)cc1` (stereo in doubt) [NU8293, 3-(4-Chlorophenyl)-3-(4-hydroxycyclopent-2-enyloxy)-2-(4-chlorobenzyl) isoindolin-1-one]?
**A.** levels of p53, p21 and MDM2 protein (FIG. 1) (SJSA-1 cell line [1]): induction of increased levels of p53, p21 and MDM2 protein; p53 dependent transcriptional activity (FIG. 3) [3]: activation of p53 dependent transcriptional activity; IC50 (MDM2-p53 interaction; [5]): 1.5 ± 0.3 µM

**Q.** For `Cc1ccc(CN2C(=O)c3ccccc3C2(O[C@H]2C=C[C@@H](O)C2)c2ccc(Cl)cc2)cc1` (stereo in doubt) [NU8295, 3-(4-Chlorophenyl)-3-(4-hydroxycyclopent-2-enyloxy)-2-(4-methylbenzyl) isoindolin-1-one], which “levels of p53, p21 and MDM2 protein (FIG. 1)” value (SJSA-1 cell line [1]) is on record?
**A.** Its value is “induction of increased levels of p53, p21 and MDM2 protein”.

**Q.** And the IC50 (MDM2-p53 interaction; [5])?
**A.** Its IC50 is 1.4 ± 0.4 µM.

**Q.** For `O=C1c2ccccc2C(O[C@H]2C=C[C@@H](O)C2)(c2ccc(Cl)cc2)N1Cc1ccc([N+](=O)[O-])cc1` (stereo in doubt) [NU8297, 3-(4-Chlorophenyl)-3-(4-hydroxycyclopent-2-enyloxy)-2-(4-nitrobenzyl) isoindolin-1-one], which “levels of p53, p21 and MDM2 protein (FIG. 1)” value (SJSA-1 cell line [1]) is on record?
**A.** The value was “did not show any evidence of activity”.

**Q.** And the “p53 dependent transcriptional activity (FIG. 3)” value [3]?
**A.** The value was “activation of p53 dependent transcriptional activity”.

**Q.** For `O=C1c2ccccc2C(O[C@H]2C=C[C@@H](O)C2)(c2ccc(Cl)cc2)N1Cc1ccccc1` (stereo in doubt) [NU8298, 2-Benzyl-3-(4-chlorophenyl)-3-(4-hydroxycyclopent-2-enyloxy) isoindolin-1-one], which IC50 (MDM2-p53 interaction; [5]) is on record?
**A.** Its IC50 is 2.3 ± 0.3 µM.

**Q.** With `O=C1c2ccccc2C(OCC2(CO)CC2)(c2ccc(Cl)cc2)N1Cc1ccc(I)cc1` (stereo not drawn) [NCL-00014529, 3-(4-chlorophenyl)-3-(1-hydroxymethylcyclopropylmethoxy)-2-(4-iodobenzyl)-2,3-dihydroisoindol-1-one] as the molecule, how does the IC50 (MDM2-p53 interaction; [6]) read?
**A.** The IC50 was 1.5 µM.

**Q.** With `O=C1c2ccccc2C(O)(c2ccc(Cl)cc2)N1Cc1cccc2ccccc12` (stereo not drawn) [NCL-00016046, 3-(4-chlorophenyl)-3-hydroxy-2-naphthalen-1-ylmethyl-2,3-dihydroisoindol-1-one] as the molecule, how does the IC50 (MDM2-p53 interaction; [6]) read?
**A.** Its IC50 is 96 µM.

**Q.** For `O=C1c2ccccc2C(O)(c2ccc(F)cc2)N1Cc1ccc([N+](=O)[O-])cc1` (stereo not drawn) [NCL-00016657, 3-(4-fluorophenyl)-3-hydroxy-2-(4-nitrobenzyl)-2,3-dihydroisoindol-1-one], which IC50 (MDM2-p53 interaction; [6]) is on record?
**A.** Its IC50 is 9.46 µM.

**Q.** What does the source list for `O=C1c2ccccc2C(O[C@H]2CC[C@@H](O)C2)(c2ccc(Cl)cc2)N1Cc1ccc([N+](=O)[O-])cc1` (stereo partly drawn) [NU8296, 3-(4-chlorophenyl)-3-((1S,3R)-3-hydroxycyclopentyloxy)-2-(4-nitrobenzyl)isoindolin-1-one]?
**A.** PARP and caspase-3 cleavage (FIG. 4) (SJSA-1 cell line [4]): comparable to those observed with nutlin-3; p53 dependent transcriptional activity (FIG. 3) [3]: activation of p53 dependent transcriptional activity

**Q.** With `O=C1c2ccccc2C(OC/C=C\CO)(c2ccc(Cl)cc2)N1Cc1ccc([N+](=O)[O-])cc1` (stereo not drawn) [NU8350, 3-(4-Chlorophenyl)-3-(4-hydroxybut-2-enyloxy)-2-(4-nitrobenzyl)-2,3-dihydroisoindol-1-one] as the molecule, how does the IC50 (MDM2-p53 interaction; [7]) read?
**A.** Its IC50 is 0.402 ± 0.009 µM.

**Q.** For `O=C1c2ccccc2C(OCC=CCO)(c2ccc(Cl)cc2)N1Cc1ccc([N+](=O)[O-])cc1` (stereo not drawn) [NU8351, 3-(4-Chlorophenyl)-3-(4-hydroxybut-2-enyloxy)-2-(4-nitrobenzyl)-2,3-dihydroisoindol-1-one], which IC50 (MDM2-p53 interaction; [7]) is on record?
**A.** Its IC50 is 0.405 ± 0.01 µM.

**Q.** Which IC50 (MDM2-p53 interaction; [7]) does the source give for `CC(C)(CO)COC1(c2ccc(Cl)cc2)c2ccccc2C(=O)N1Cc1ccc([N+](=O)[O-])cc1` (stereo not drawn) [NU8353, 3-(4-Chloro-phenyl)-3-(3-hydroxy-2,2-dimethyl-propoxy)-2-(4-nitro-benzyl)-2,3-dihydro-isoindol-1-one] here?
**A.** Its IC50 is 0.395 ± 0.075 µM.

**Q.** `O=C1c2ccccc2C(OC[C@H]2CC[C@H](CO)CC2)(c2ccc(Cl)cc2)N1Cc1ccc([N+](=O)[O-])cc1` (stereo partly drawn) [NU8358, 3-(4-Chlorophenyl)-3-(4-hydroxymethylcyclohexylmethoxy)-2-(4-nitrobenzyl)-2,3-dihydroisoindol-1-one] was tested. Which IC50 (MDM2-p53 interaction; [7]) did it give?
**A.** The IC50 was 0.582 ± 0.075 µM.

**Q.** Which IC50 (MDM2-p53 interaction; [5]) does the source give for `O=C1c2ccccc2C(OCCCCO)(c2ccc(Cl)cc2)N1CCc1ccc([N+](=O)[O-])cc1` (stereo not drawn) [NU8362, 3-(4-Chlorophenyl)-3-(4-hydroxybutoxy)-2-[2-(4-nitrophenyl)ethyl]-2,3-dihydroisoindol-1-one] here?
**A.** Its IC50 is 3.2 ± 1 µM.

**Q.** Which IC50 (MDM2-p53 interaction; Table 3, read-out: MDM2 IC50) does the source give for `O=C1c2ccccc2C(OCCCCO)(c2ccc(Br)cc2)N1Cc1ccc([N+](=O)[O-])cc1` (stereo not drawn) [NU8390, 3-(4-bromophenyl)-3-(4-hydroxybutoxy)-2-(4-nitrobenzyl)isoindolin-1-one] here?
**A.** The IC50 was 0.57 ± 0.059 µM.

**Q.** `O=C1c2ccccc2C(OCCCO)(c2ccc(Br)cc2)N1Cc1ccc([N+](=O)[O-])cc1` (stereo not drawn) [NU8392, 3-(4-bromophenyl)-3-(3-hydroxypropoxy)-2-(4-nitrobenzyl)isoindolin-1-one] was tested. Which IC50 (MDM2-p53 interaction; Table 3, read-out: MDM2 IC50) did it give?
**A.** Its IC50 is 1.4 ± 0.16 µM.

**Q.** For `O=C1c2ccccc2C(OCC2(CO)CC2)(c2ccc(Cl)cc2)N1Cc1ccc(Cl)cc1` (stereo not drawn) [NU8416, 2-(4-chlorobenzyl)-3-(4-chlorophenyl)-3-((1-(hydroxymethyl)cyclopropyl)methoxy)isoindolin-1-one], which IC50 (MDM2-p53 interaction; Table 4, read-out: MDM2 IC50) is on record?
**A.** Its IC50 is 2.31 ± 0.56 µM.
